The record followed here is publication PMC9422132, “Membrane transporters control cerebrospinal fluid formation independently of conventional osmosis to modulate intracranial pressure” (Fluids and Barriers of the CNS, 2022).

The IC50 is the concentration that gives 50% inhibition. Lower therefore signals greater potency.

For the assay, the target named is T1, NBCe2 (Rattus norvegicus, UniProt Q6RI88).
T1 construct: gene Slc4a5
T1 sequence (Q6RI88 1-1112): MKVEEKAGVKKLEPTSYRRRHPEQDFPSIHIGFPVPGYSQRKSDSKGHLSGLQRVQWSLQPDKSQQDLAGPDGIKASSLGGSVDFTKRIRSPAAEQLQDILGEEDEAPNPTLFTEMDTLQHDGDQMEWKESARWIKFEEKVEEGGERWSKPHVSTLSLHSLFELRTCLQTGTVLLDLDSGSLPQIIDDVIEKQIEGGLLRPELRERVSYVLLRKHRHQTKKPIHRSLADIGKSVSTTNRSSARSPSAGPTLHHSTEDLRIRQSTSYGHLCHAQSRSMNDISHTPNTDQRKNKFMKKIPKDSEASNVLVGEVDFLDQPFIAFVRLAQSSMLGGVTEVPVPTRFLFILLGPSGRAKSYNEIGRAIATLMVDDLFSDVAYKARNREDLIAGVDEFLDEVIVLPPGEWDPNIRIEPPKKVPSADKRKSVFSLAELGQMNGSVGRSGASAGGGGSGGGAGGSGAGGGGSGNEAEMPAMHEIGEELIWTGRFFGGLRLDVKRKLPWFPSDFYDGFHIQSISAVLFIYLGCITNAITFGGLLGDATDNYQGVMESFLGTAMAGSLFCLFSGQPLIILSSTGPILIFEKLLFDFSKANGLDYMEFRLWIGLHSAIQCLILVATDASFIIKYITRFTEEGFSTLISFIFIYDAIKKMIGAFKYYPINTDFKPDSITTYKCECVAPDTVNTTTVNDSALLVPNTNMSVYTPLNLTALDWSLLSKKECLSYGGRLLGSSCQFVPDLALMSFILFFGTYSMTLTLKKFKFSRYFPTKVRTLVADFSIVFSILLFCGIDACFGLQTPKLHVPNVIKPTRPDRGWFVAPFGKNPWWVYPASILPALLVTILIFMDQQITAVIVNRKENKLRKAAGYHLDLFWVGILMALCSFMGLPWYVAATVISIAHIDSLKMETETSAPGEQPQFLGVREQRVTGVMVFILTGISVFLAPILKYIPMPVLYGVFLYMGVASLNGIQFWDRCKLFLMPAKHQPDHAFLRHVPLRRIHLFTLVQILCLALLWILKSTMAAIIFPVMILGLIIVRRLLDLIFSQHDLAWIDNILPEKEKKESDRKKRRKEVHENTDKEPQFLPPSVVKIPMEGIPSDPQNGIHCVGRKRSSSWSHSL
Kind of assay: two-electrode voltage clamp of rat NBCe2 expressed in Xenopus laevis oocytes. The format is cell-based. In general terms: Two-electrode voltage clamp is typically applied to oocytes expressing channels or transporters.

Molecule `O=S(=O)(O)c1cc(N=C=S)ccc1/C=C/c1ccc(N=C=S)cc1S(=O)(=O)O` [DIDS] yielded an IC50 of 4.5 ± 1.8 µM. `Cc1ccc(CN(Cc2ccc(-c3ccccc3S(=O)(=O)NC#N)cc2)C(=O)c2ccccc2Cl)cc1` [S0859] showed an IC50 of 10.7 ± 0.9 µM.
